Experimental data as given in patent US10344025B2, “GLS1 inhibitors for treating disease” (Board of Regents, The University of Texas System, priority 2014, dated 2019).

Assays:
A549 cells = assay: Proliferation Assay (A549 viability, Cell Titer Fluor, 72 hours); assay type: cell-based; details: Homo sapiens
Outline: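 A549 cells seeded at 1000 cells/well, rested 24 h, then exposed to compound in 0.5% DMSO for 72 h at 37 °C. Viability read by Cell Titer Fluor fluorescence; IC50 from four-parameter logistic fit.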

[1] = target: purified recombinant human GAC (GLS1) (Homo sapiens (Human), UniProt O94925); assay: GLS1 Enzymatic Activity Assay (dual-coupled enzymatic assay, resorufin/Amplex UltraRed readout); assay type: biochemical;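 note: glutamate from GAC coupled via glutamate oxidase and peroxidase to resorufin, read as fluorescence (ex 530, em 590 nm) kinetically or at 20 min, four-parameter logistic IC50 fit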
Sequence of purified recombinant human GAC (GLS1) (O94925 other isoform, or with tags, fused parts or gaps): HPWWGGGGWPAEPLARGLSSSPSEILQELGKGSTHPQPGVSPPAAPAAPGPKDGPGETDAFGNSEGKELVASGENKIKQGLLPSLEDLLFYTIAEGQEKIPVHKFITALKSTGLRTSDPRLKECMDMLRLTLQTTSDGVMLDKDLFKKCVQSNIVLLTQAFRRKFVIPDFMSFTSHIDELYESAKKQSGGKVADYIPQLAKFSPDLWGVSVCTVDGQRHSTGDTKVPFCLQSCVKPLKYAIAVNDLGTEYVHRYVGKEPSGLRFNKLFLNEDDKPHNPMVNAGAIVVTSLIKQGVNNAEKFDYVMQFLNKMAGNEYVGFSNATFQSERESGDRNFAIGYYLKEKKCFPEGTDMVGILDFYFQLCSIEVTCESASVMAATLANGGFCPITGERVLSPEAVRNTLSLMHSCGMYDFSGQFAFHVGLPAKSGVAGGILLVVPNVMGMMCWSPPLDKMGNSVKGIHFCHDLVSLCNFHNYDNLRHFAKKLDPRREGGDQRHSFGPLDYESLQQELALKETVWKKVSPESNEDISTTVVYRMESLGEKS

| Structure (SMILES) | EC50 (A549 cells; A549, 72 h) [nM] | IC50 [1] [nM] | EC50 (A549 cells) [nM] |
| --- | --- | --- | --- |
| CC(=O)Nc1ccc(CCC(F)Cn2cc(C(=O)NCc3cc(C(F)(F)F)ccn3)nn2)nn1 (stereo not shown) [Example 236, 1-(4-(6-acetamidopyridazin-3-yl)-2-fluorobutyl)-N-((4-(trifluoromethyl)pyridin-2-yl)methyl)-1H-1,2,3-triazole-4-carboxamide] | < 100 | < 100 |  |
| CNC(=O)c1cn(CCC(F)Cn2cc(C(=O)NCc3cccc(C(=O)OC)c3)nn2)nn1 (stereo not shown) [Example 185, methyl 3-{[(1-{2-fluoro-4-[4-(methylcarbamoyl)-1H-1,2,3-triazol-1-yl]butyl}-1H-1,2,3-triazol-4-yl)formamido]methyl} benzoate] | 500 to 5000 | 100 to 500 |  |
| O=C(NCC(F)(F)F)c1cn(CC(F)CCc2nnc(C(=O)NCc3cc(C(F)(F)F)ccn3)s2)nn1 (stereo not shown) [Example 509, 5-(3-fluoro-4-{4-[(2,2,2-trifluoroethyl)carbamoyl]-1H-1,2,3-triazol-1-yl}butyl)-N-{[4-(trifluoromethyl)pyridin-2-yl]methyl}-1,3,4-thiadiazole-2-carboxamide] | 100 to 500 | 100 to 500 |  |
| O=C(Cc1cccc(OC(F)(F)F)c1)Nc1nnc(CCCCn2cc(C(=O)NCc3ccccn3)nn2)s1 [Example 19, N-(pyridin-2-ylmethyl)-1-[4-(5-{2-[3-(trifluoromethoxy)phenyl]acetamido}-1,3,4-thiadiazol-2-yl)butyl]-1H-1,2,3-triazole-4-carboxamide] | < 100 | < 100 |  |
| O=C(NCc1cccc(OC(F)(F)F)c1)c1cn(CCCCn2cc(C(=O)NCc3cc(C4CC4)ccn3)nn2)nn1 [Example 106, N-[(4-cyclopropylpyridin-2-yl)methyl]-1-{4-[4-({[3-(trifluoromethoxy)phenyl]methyl}carbamoyl)-1H-1,2,3-triazol-1-yl]butyl}-1H-1,2,3-triazole-4-carboxamide] | < 100 | < 100 |  |
| O=C(Cc1ccccn1)Nc1nnc(CCC(F)Cn2cc(C(=O)NCc3cc(C(F)(F)F)ccn3)nn2)s1 (stereo not shown) [Example 540, 1-(2-fluoro-4-(5-(2-(pyridin-2-yl)acetamido)-1,3,4-thiadiazol-2-yl)butyl)-N-((4-(trifluoromethyl)pyridin-2-yl)methyl)-1H-1,2,3-triazole-4-carboxamide] |  | < 100 | < 100 |
| O=C(NCC1CCOCC1)c1cn(CCC(F)Cn2cc(C(=O)NCc3cc(C(F)(F)F)ccn3)nn2)nn1 (stereo not shown) [Example 457, 1-(2-fluoro-4-{4-[(oxan-4-ylmethyl)carbamoyl]-1H-1,2,3-triazol-1-yl}butyl)-N-{[4-(trifluoromethyl)pyridin-2-yl]methyl}-1H-1,2,3-triazole-4-carboxamide] | 500 to 5000 | 500 to 5000 |  |
| O=C(NCc1ccccn1)c1cn(CC(F)CCc2nnc(C(=O)NCc3cc(C(F)(F)F)ccn3)s2)nn1 (stereo not shown) [Example 234, 5-(3-fluoro-4-(4-((pyridin-2-ylmethyl)carbamoyl)-1H-1,2,3-triazol-1-yl)butyl)-N-((4-(trifluoromethyl)pyridin-2-yl)methyl)-1,3,4-thiadiazole-2-carboxamide] | 100 to 500 | < 100 |  |
| Cc1ccc(CNC(=O)c2cn(CCCCn3cc(NC(=O)CC4CC4)nn3)nn2)cn1 [Example 300, 1-{4-[4-(2-cyclopropylacetamido)-1H-1,2,3-triazol-1-yl]butyl}-N-[(6-methylpyridin-3-yl)methyl]-1H-1,2,3-triazole-4-carboxamide] | > 5000 | 500 to 5000 |  |
| O=C(NCC(F)(F)F)c1cn(CC(F)CCc2nnc(C(=O)NCc3cncc(C(F)(F)F)c3)s2)nn1 (stereo not shown) [Example 506, 5-(3-fluoro-4-{4-[(2,2,2-trifluoroethyl)carbamoyl]-1H-1,2,3-triazol-1-yl}butyl)-N-{[5-(trifluoromethyl)pyridin-3-yl]methyl}-1,3,4-thiadiazole-2-carboxamide] | 100 to 500 | 100 to 500 |  |
| O=C(NCc1cncc(C(F)(F)F)c1)c1cn(CCCCn2cc(C(=O)NCC3CCC3)nn2)nn1 [Example 93, N-(cyclobutylmethyl)-1-{4-[4-({[5-(trifluoromethyl)pyridin-3-yl]methyl}carbamoyl)-1H-1,2,3-triazol-1-yl]butyl}-1H-1,2,3-triazole-4-carboxamide] | 500 to 5000 | 100 to 500 |  |
| O=C(NCc1cc(C(F)(F)F)ccn1)c1cn(CCCCn2cc(C(=O)NCC3CCC3)nn2)nn1 [Example 85, 1-(4-{4-[(cyclobutylmethyl)carbamoyl]-1H-1,2,3-triazol-1-yl}butyl)-N-{[4-(trifluoromethyl)pyridin-2-yl]methyl}-1H-1,2,3-triazole-4-carboxamide] | 500 to 5000 | 500 to 5000 |  |
| COc1ccc(CNC(=O)c2cn(CC(F)CCc3nnc(NC(=O)Cc4cc(OC(F)(F)F)ccc4F)s3)nn2)cn1 (stereo not shown) [Example 219, 1-(2-fluoro-4-(5-(2-(2-fluoro-5-(trifluoromethoxy)phenyl)acetamido)-1,3,4-thiadiazol-2-yl)butyl)-N-((6-methoxypyridin-3-yl)methyl)-1H-1,2,3-triazole-4-carboxamide] | < 100 | < 100 |  |
| O=C(NCc1cccc(C2CC2)c1)c1cn(CCCCn2cc(C(=O)NCc3cc(C(F)(F)F)ccn3)nn2)nn1 [Example 105, 1-[4-(4-{[(3-cyclopropylphenyl)methyl]carbamoyl}-1H-1,2,3-triazol-1-yl)butyl]-N-{[4-(trifluoromethyl)pyridin-2-yl]methyl}-1H-1,2,3-triazole-4-carboxamide] | < 100 | < 100 |  |
| O=C(Cc1cc(Cl)ccc1F)Nc1cn(CCCCn2cc(C(=O)NCc3ncccc3F)nn2)nn1 [Example 387, 1-(4-{4-[2-(5-chloro-2-fluorophenyl)acetamido]-1H-1,2,3-triazol-1-yl}butyl)-N-[(3-fluoropyridin-2-yl)methyl]-1H-1,2,3-triazole-4-carboxamide] | 500 to 5000 | 100 to 500 |  |
| Cc1ccc(CC(=O)Nc2cn(CCCCn3cc(C(=O)NCc4ccccn4)nn3)nn2)cn1 [Example 306, 1-(4-{4-[2-(6-methylpyridin-3-yl)acetamido]-1H-1,2,3-triazol-1-yl}butyl)-N-(pyridin-2-ylmethyl)-1H-1,2,3-triazole-4-carboxamide] | 500 to 5000 | 100 to 500 |  |
| CNC(=O)c1cn(CCCCn2cc(C(=O)NCc3cccc(OC(F)(F)F)c3)nn2)nn1 [Example 95, N-methyl-1-{4-[4-({[3-(trifluoromethoxy)phenyl]methyl}carbamoyl)-1H-1,2,3-triazol-1-yl]butyl}-1H-1,2,3-triazole-4-carboxamide] | 100 to 500 | 100 to 500 |  |
| CNC(=O)c1cn(CCC(F)Cn2cc(C(=O)NCc3cncc4ccccc34)nn2)nn1 (stereo not shown) [Example 171, 1-(3-fluoro-4-{4-[(isoquinolin-4-ylmethyl)carbamoyl]-1H-1,2,3-triazol-1-yl}butyl)-N-methyl-1H-1,2,3-triazole-4-carboxamide] | 500 to 5000 | 100 to 500 |  |
| O=C(NCC1CCCCC1)c1cn(CCC(F)Cn2cc(C(=O)NCc3cc(C(F)(F)F)ccn3)nn2)nn1 (stereo not shown) [Example 456, 1-(4-{4-[(cyclohexylmethyl)carbamoyl]-1H-1,2,3-triazol-1-yl}-2-fluorobutyl)-N-{[4-(trifluoromethyl)pyridin-2-yl]methyl}-1H-1,2,3-triazole-4-carboxamide] | < 100 | < 100 |  |
| O=C(NCc1cccc(OC(F)(F)F)c1)c1cn(CCCCc2nnc(C(=O)NCc3cncc(C(F)(F)F)c3)s2)nn1 [Example 76, 5-{4-[4-({[3-(trifluoromethoxy)phenyl]methyl}carbamoyl)-1H-1,2,3-triazol-1-yl]butyl}-N-{[5-(trifluoromethyl)pyridin-3-yl]methyl}-1,3,4-thiadiazole-2-carboxamide] | < 100 | < 100 |  |
| CNC(=O)c1cn(CCC(F)Cn2cc(C(=O)NCc3cc(OC(F)(F)F)ccc3F)nn2)nn1 (stereo not shown) [Example 153, 1-{3-fluoro-4-[4-({[2-fluoro-5-(trifluoromethoxy)phenyl]methyl}carbamoyl)-1H-1,2,3-triazol-1-yl]butyl}-N-methyl-1H-1,2,3-triazole-4-carboxamide] | 100 to 500 | < 100 |  |
| O=C(CN1CC(F)(F)C1)Nc1cn(CC(F)CCn2cc(C(=O)NCc3ccccn3)nn2)nn1 (stereo not shown) [Example 392, 1-(4-{4-[2-(3,3-difluoroazetidin-1-yl)acetamido]-1H-1,2,3-triazol-1-yl}-3-fluorobutyl)-N-(pyridin-2-ylmethyl)-1H-1,2,3-triazole-4-carboxamide] | > 5000 | 500 to 5000 |  |
| CC(=O)Nc1ccc(CCCCc2nnc(C(=O)NCc3cc(C(F)(F)F)ccn3)s2)nn1 [Example 601, 5-(4-(6-acetamidopyridazin-3-yl)butyl)-N-((4-(trifluoromethyl)pyridin-2-yl)methyl)-1,3,4-thiadiazole-2-carboxamide] | < 100 | < 100 |  |
| O=C(Cc1ccccn1)Nc1cn(CCCCn2cc(C(=O)NCc3cccnc3)nn2)nn1 [Example 321, 1-(4-{4-[2-(pyridin-2-yl)acetamido]-1H-1,2,3-triazol-1-yl}butyl)-N-(pyridin-3-ylmethyl)-1H-1,2,3-triazole-4-carboxamide] | 500 to 5000 | 500 to 5000 |  |
| O=C(CN1CC(F)C1)Nc1cn(CC(F)CCn2cc(C(=O)NCc3cc(OC(F)(F)F)ccc3F)nn2)nn1 (stereo not shown) [Example 372, 1-(3-fluoro-4-(4-(2-(3-fluoroazetidin-1-yl)acetamido)-1H-1,2,3-triazol-1-yl)butyl)-N-(2-fluoro-5-(trifluoromethoxy)benzyl)-1H-1,2,3-triazole-4-carboxamide] |  | < 100 | 100 to 500 |
| O=C(CN1CCC(F)(F)C1)Nc1cn(CCCCn2cc(C(=O)NCc3cccc(OC(F)(F)F)c3)nn2)nn1 [Example 331, 1-(4-{4-[2-(3,3-difluoropyrrolidin-1-yl)acetamido]-1H-1,2,3-triazol-1-yl}butyl)-N-{[3-(trifluoromethoxy)phenyl]methyl}-1H-1,2,3-triazole-4-carboxamide] | 100 to 500 | < 100 |  |
